Publication PMC3530961 (Journal of Medicinal Chemistry, 2012)

Assays:
[1] = target: T1, recombinant PfTMPK (Plasmodium falciparum, UniProt Q8I4S1); settings: read-out: Km of PfTMPK for TMP; substrate constant; cited from earlier work
T1 sequence (Q8I4S1 1-210): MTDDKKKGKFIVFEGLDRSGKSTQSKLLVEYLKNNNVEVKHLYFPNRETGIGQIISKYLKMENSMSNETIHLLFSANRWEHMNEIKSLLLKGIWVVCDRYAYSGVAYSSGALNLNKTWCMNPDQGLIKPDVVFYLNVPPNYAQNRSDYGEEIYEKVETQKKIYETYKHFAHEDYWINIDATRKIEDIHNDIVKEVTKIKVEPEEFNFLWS

[2] = target: T1, recombinant PfTMPK; assay: PfTMPK inhibition, coupled assay with pyruvate kinase and lactate dehydrogenase; type: biochemical
[3] = system: P. falciparum 3D7; assay: growth inhibition of P. falciparum, SYBR green assay; type: cell-based, Plasmodium falciparum
[4] = intrinsic clearance; type: in vitro ADME, mouse; settings: for microsomal stability (CLi): female CD1 mouse liver microsomes, 0.5 µM compound; for microsomal stability / in vitro DMPK properties, in words: hepatic microsomes
[5] = plasma protein binding by equilibrium dialysis; type: in vitro ADME, mouse; settings: for plasma protein binding (% bound): female CD1 mouse plasma, equilibrium dialysis 5 h, 37 °C

| SMILES | inhibitory activity against PfTMPK, in words [2] | activity against the parasite, in words [3] | further results |
| --- | --- | --- | --- |
| Cc1cn([C@H]2C[C@H](O)[C@@H](COP(=O)(O)O)O2)c(=O)[nH]c1=O [TMP, thymidine monophosphate] | – | – | Km [1]: 11 µM |
| Cc1cn([C@@H]2C[C@H](O)[C@@H](CNS(=O)(=O)c3ccc4ccccc4c3)O2)c(=O)[nH]c1=O [Compound 10] | no or very low inhibitory activity | – | – |
| COc1ccc(COc2ccc(NC(=O)NC[C@H]3O[C@H](n4cc(C)c(=O)[nH]c4=O)C[C@@H]3O)cc2)cc1 [Compound 87, N-(5′-Deoxy-α-thymidin-5′-yl)-N′-(4-(4-methyoxybenzyloxy)phenyl)urea] | – | sub-micromolar activity | – |
| COc1ccc(NC(=O)NC[C@H]2O[C@H](n3cc(C)c(=O)[nH]c3=O)C[C@@H]2O)cc1 [Compound 26] | – | – | increase in potency against the parasite compared to compound 17 ([3]; ratio of EC50 values versus starting compound 17): 10 fold |
| Cc1cn([C@@H]2C[C@H](O)[C@@H](CNC(=O)Nc3ccc(OCc4ccc(Cl)cc4)cc3)O2)c(=O)[nH]c1=O [Compound 86, N-(5′-Deoxy-α-thymidin-5′-yl)-N′-(4-(4-chlorobenzyloxy)phenyl)urea] | – | sub-micromolar activity | – |
| Cc1cn([C@@H]2C[C@H](O)[C@@H](CNC(=O)Nc3ccc(OCc4ccccc4)cc3)O2)c(=O)[nH]c1=O [Compound 60] | – | sub-micromolar activity | microsomal stability (CLi) [4]: 3 mL/min/g; microsomal stability / in vitro DMPK properties, in words [4]: good in vitro DMPK properties; plasma protein binding (% bound) [5]: 81.2 % bound |
| Cc1cn([C@H]2C[C@H](O)[C@@H](CNC(=O)Nc3ccc(OCc4ccccc4Cl)cc3)O2)c(=O)[nH]c1=O [Compound 89] | – | sub-micromolar activity | drop in activity of β-derivative relative to α-derivative 84 [3]: 20 fold |
| Cc1cn([C@H]2C[C@H](O)[C@@H](CNC(=O)c3ccc4ccccc4c3)O2)c(=O)[nH]c1=O [Compound 36] | no or very low inhibitory activity | – | – |
| Cc1cn([C@@H]2C[C@H](O)[C@@H](CNC(=O)c3ccc4ccccc4c3)O2)c(=O)[nH]c1=O [Compound 11] | no or very low inhibitory activity | – | – |
| Cc1cn([C@@H]2C[C@H](O)[C@@H](CNC(=O)Nc3ccc(-c4ccccc4)cc3)O2)c(=O)[nH]c1=O [Compound 57] | – | sub-micromolar activity | microsomal stability (CLi) [4]: 1.9 mL/min/g; microsomal stability / in vitro DMPK properties, in words [4]: good in vitro DMPK properties; plasma protein binding (% bound) [5]: 92.0 % bound |
| Cc1cn([C@@H]2C[C@H](O)[C@@H](CNC(=O)Nc3ccc(OCc4cccc(Cl)c4)cc3)O2)c(=O)[nH]c1=O [Compound 85, N-(5′-Deoxy-α-thymidin-5′-yl)-N′-(4-(3-chlorobenzyloxy)phenyl)urea] | – | sub-micromolar activity | – |
| Cc1cn([C@@H]2C[C@H](O)[C@@H](CNC(=O)Nc3ccc(Oc4ccccc4)cc3)O2)c(=O)[nH]c1=O [Compound 66] | – | sub-micromolar activity | microsomal stability (CLi) [4]: 1.8 mL/min/g; microsomal stability / in vitro DMPK properties, in words [4]: good in vitro DMPK properties; plasma protein binding (% bound) [5]: 90.5 % bound |
| Cc1cn([C@@H]2C[C@H](O)[C@@H](CNC(=O)Nc3ccc(N4CCCCC4)cc3)O2)c(=O)[nH]c1=O [Compound 63] | – | sub-micromolar activity | microsomal stability (CLi) [4]: 0.5 mL/min/g; microsomal stability / in vitro DMPK properties, in words [4]: good in vitro DMPK properties; unbound fraction in plasma, in words [5]: particularly large unbound fraction; plasma protein binding (% bound) [5]: 52.3 % bound |
| Cc1cn([C@@H]2C[C@H](O)[C@@H](CNC(=O)Nc3ccc(OCc4ccccc4Cl)cc3)O2)c(=O)[nH]c1=O [Compound 84, N-(5′-Deoxy-α-thymidin-5′-yl)-N′-(4-(2-chlorobenzyloxy)phenyl)urea] | – | sub-micromolar activity | microsomal stability (CLi) [4]: 6 mL/min/g; microsomal stability / in vitro DMPK properties, in words [4]: rapid turnover; plasma protein binding (% bound) [5]: 94.1 % bound |

Further lines, with some results ahead:

| inhibitory activity against PfTMPK, in words [2] | SMILES | activity against the parasite, in words [3] | further results |
| --- | --- | --- | --- |
| no or very low inhibitory activity | Cc1cn([C@@H]2C[C@H](O)[C@@H](CNCc3ccc([N+](=O)[O-])cc3)O2)c(=O)[nH]c1=O [Compound 13] | – | – |
| no or very low inhibitory activity | Cc1cn([C@H]2C[C@H](O)[C@@H](CNC(=O)c3ccc([N+](=O)[O-])cc3)O2)c(=O)[nH]c1=O [Compound 37] | – | – |
| no or very low inhibitory activity | Cc1cn([C@@H]2C[C@H](O)[C@@H](CNC(=O)c3ccc([N+](=O)[O-])cc3)O2)c(=O)[nH]c1=O [Compound 12] | – | – |
| no or very low inhibitory activity | Cc1cn([C@@H]2C[C@H](O)[C@@H](CNS(=O)(=O)c3ccc([N+](=O)[O-])cc3)O2)c(=O)[nH]c1=O [Compound 9] | – | – |
| no or very low inhibitory activity | Cc1cn([C@H]2C[C@H](O)[C@@H](CNS(=O)(=O)c3ccc([N+](=O)[O-])cc3)O2)c(=O)[nH]c1=O [Compound 34] | – | – |
| no or very low inhibitory activity | Cc1cn([C@H]2C[C@H](O)[C@@H](CNCc3ccc([N+](=O)[O-])cc3)O2)c(=O)[nH]c1=O [Compound 38] | – | – |
| no or very low inhibitory activity | Cc1cn([C@H]2C[C@H](O)[C@@H](CNS(=O)(=O)c3ccc4ccccc4c3)O2)c(=O)[nH]c1=O [Compound 35] | – | – |
